Results as given in patent US7585859B2, “PDE4B inhibitors and uses therefor” (Plexxikon, Inc., priority 2004, dated 2009).

How the values were obtained:
[1] = molecular target: T1, PDE4B: The catalytic domain of human PDE4B from S152-S528 (Homo sapiens, UniProt Q07343); experiment: PDE4 IC50 determination by Scintillation Proximity Assay, PDE4B; format: biochemical; details: second part of Table 2B (2-23 to 2-103), column 3; column is PDE4B in first part; read-out: IC 50 vs. indicated assay h TNFα
T1 construct: His6 (N); thrombin cleavage site (N); made in house; host or cells: E. coli
In short: (§1)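 Scintillation counts reflected [^3H]AMP captured on yttrium silicate SPA beads after enzyme hydrolysed [^3H]cAMP for 30 min at 30°. PDE4B was used at 80 ng/ml and PDE4D at 4 ng/ml. IC50 values came from non-linear regression.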

PDE4D = molecular target: T2, PDE4D (Homo sapiens, UniProt Q08499); experiment: PDE4 IC50 determination by Scintillation Proximity Assay, PDE4D; format: biochemical; details: second part of Table 2B (2-23 to 2-103), column 5; column is PDE4D in first part; read-out: IC 50 vs. indicated assay h TNFα
T2 construct: PDE4D: The catalytic domain of human PDE4B from S3 16-V692; His6 (N); thrombin cleavage site (N); made in house; host or cells: E. coli
In short: as §1

T1 sequence (Q07343 with tags, fused parts or gaps): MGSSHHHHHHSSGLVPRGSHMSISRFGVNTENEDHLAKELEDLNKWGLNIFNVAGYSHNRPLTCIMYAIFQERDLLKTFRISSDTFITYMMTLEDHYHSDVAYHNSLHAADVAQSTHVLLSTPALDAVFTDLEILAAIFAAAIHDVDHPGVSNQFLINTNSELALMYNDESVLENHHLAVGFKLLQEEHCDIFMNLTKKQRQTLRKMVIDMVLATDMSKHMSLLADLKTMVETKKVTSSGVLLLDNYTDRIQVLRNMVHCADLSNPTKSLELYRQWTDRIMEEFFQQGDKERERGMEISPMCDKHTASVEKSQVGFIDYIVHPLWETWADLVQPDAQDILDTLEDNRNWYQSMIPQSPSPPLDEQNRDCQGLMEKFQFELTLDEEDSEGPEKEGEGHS
T2 sequence (Q08499 380-756): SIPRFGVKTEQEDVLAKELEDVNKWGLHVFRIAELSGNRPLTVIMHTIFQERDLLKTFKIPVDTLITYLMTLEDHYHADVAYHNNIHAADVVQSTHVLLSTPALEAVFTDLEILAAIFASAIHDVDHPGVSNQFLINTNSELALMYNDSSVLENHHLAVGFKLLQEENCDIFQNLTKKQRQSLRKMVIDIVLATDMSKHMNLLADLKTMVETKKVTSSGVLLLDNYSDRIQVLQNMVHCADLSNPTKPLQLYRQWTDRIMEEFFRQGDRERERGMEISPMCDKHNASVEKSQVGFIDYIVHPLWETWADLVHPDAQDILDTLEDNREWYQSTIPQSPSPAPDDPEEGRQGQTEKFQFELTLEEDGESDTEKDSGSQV

Structure (SMILES) | IC50 [1] [µM] | IC50 (PDE4D) [µM]
N#Cc1cccc(Nc2nc(N)c(C(=O)c3ccc(Oc4ccccc4)cc3)s2)c1 [Compound 2-46, 3-[4-Amino-5-(4-phenoxy-benzoyl)-thiazol-2-ylamino]-benzonitrile] | < 10 | < 10
COc1ccc(C(=O)c2sc(Nc3cccc(C#N)c3)nc2N)cc1 [Compound 2-48, 3-[4-Amino-5-(4-methoxy-benzoyl)-thiazol-2-ylamino]-benzonitrile] | < 10 | < 10
COc1ccc(C(=O)c2sc(Nc3ccc(Oc4ccccc4)cc3)nc2N)cc1 [Compound 2-49, [4-Amino-2-(4-phenoxy-phenylamino)-thiazol-5-yl]-(4-methoxy-phenyl)-methanone] | < 10 | < 10
Nc1nc(Nc2ccccc2F)sc1C(=O)c1cccc(Cl)c1 [Compound 2-50, [4-Amino-2-(2-fluoro-phenylamino)-thiazol-5-yl]-(3-chloro-phenyl)-methanone] | < 10 | < 10
COc1ccc(Nc2nc(N)c(C(=O)c3cccc(Cl)c3)s2)cc1 [Compound 2-51, [4-Amino-2-(4-methoxy-phenylamino)-thiazol-5-yl]-(3-chloro-phenyl)-methanone] | < 10 | < 10
N#Cc1cccc(Nc2nc(N)c(C(=O)c3cccc(Cl)c3)s2)c1 [Compound 2-52, 3-[4-Amino-5-(3-chloro-benzoyl)-thiazol-2-ylamino]-benzonitrile] | < 10 | < 10
Nc1nc(Nc2ccc(Oc3ccccc3)cc2)sc1C(=O)c1cccc(Cl)c1 [Compound 2-53, [4-Amino-2-(4-phenoxy-phenylamino)-thiazol-5-yl]-(3-chloro-phenyl)-methanone] | < 10 | < 10
Nc1nc(Nc2ccccc2F)sc1C(=O)c1cccc(C(F)(F)F)c1 [Compound 2-54, [4-Amino-2-(2-fluoro-phenylamino)-thiazol-5-yl]-(3-trifluoromethyl-phenyl)-methanone] | < 10 | < 10

Now from value to compound:

IC50 [1] [µM] | IC50 (PDE4D) [µM] | Structure (SMILES)
< 10 | < 10 | COc1ccc(Nc2nc(N)c(C(=O)c3cccc(C(F)(F)F)c3)s2)cc1 [Compound 2-55, [4-Amino-2-(4-methoxy-phenylamino)-thiazol-5-yl]-(3-trifluoromethyl-phenyl)-methanone]
< 10 | < 10 | N#Cc1cccc(Nc2nc(N)c(C(=O)c3cccc(C(F)(F)F)c3)s2)c1 [Compound 2-56, 3-[4-Amino-5-(3-trifluoromethyl-benzoyl)-thiazol-2-ylamino]-benzonitrile]
< 10 | > 10 | Nc1nc(Nc2ccc(Oc3ccccc3)cc2)sc1C(=O)c1cccc(C(F)(F)F)c1 [Compound 2-57, [4-Amino-2-(4-phenoxy-phenylamino)-thiazol-5-yl]-(3-trifluoromethyl-phenyl)-methanone]
< 10 | < 10 | Nc1nc(Nc2ccccc2F)sc1C(=O)c1ccc(OC(F)F)cc1 [Compound 2-58, [4-Amino-2-(2-fluoro-phenylamino)-thiazol-5-yl]-(4-difluoromethoxy-phenyl)-methanone]
< 10 | < 10 | COc1ccc(Nc2nc(N)c(C(=O)c3ccc(OC(F)F)cc3)s2)cc1 [Compound 2-59, [4-Amino-2-(4-methoxy-phenylamino)-thiazol-5-yl]-(4-difluoromethoxy-phenyl)-methanone]
< 10 | > 10 | N#Cc1cccc(Nc2nc(N)c(C(=O)c3ccc(OC(F)F)cc3)s2)c1 [Compound 2-60, 3-[4-Amino-5-(4-difluoromethoxy-benzoyl)-thiazol-2-ylamino]-benzonitrile]
< 10 | < 10 | COc1cccc(C(=O)c2sc(Nc3ccccc3F)nc2N)c1 [Compound 2-62, [4-Amino-2-(2-fluoro-phenylamino)-thiazol-5-yl]-(3-methoxy-phenyl)-methanone]
< 10 | < 10 | COc1ccc(Nc2nc(N)c(C(=O)c3cccc(OC)c3)s2)cc1 [Compound 2-63, [4-Amino-2-(4-methoxy-phenylamino)-thiazol-5-yl]-(3-methoxy-phenyl)-methanone]
